Measurements as given in ChEMBL document CHEMBL3232845 (Bioorg Med Chem Lett, 2014).

What was measured:
[1] = molecular target: Serine/threonine-protein kinase B-raf (Homo sapiens) (UniProt P15056); experiment: Inhibition of B-Raf (unknown origin) at 1 uM
[2] = Clearance in mouse at 2.5 mg/kg, iv; format: ADME, organism-based; set-up: dose 2.5 mg/kg, route intravenous; conditions: in vivo
[3] = Antitumor activity against human LOX cells expressing B-Raf V600E mutant xenografted in nude mouse assessed as tumor growth inhibition at 30 mg/kg qd for 4 days measured on day 3; format: functional; conditions: read-out: TGI
[4] = molecular target: NUAK family SNF1-like kinase 1 (Homo sapiens) (UniProt O60285); experiment: Inhibition of human ARK5 assessed as enzyme activity at 1 uM relative to control; set-up: scale not given: the % may be the effect or the level left
[5] = molecular target: CDK6/cyclin D3 (Homo sapiens) (UniProt P30281+Q00534); experiment: Inhibition of human CDK6/cyclinD3 assessed as enzyme activity at 1 uM relative to control; format: protein-complex assay; set-up: scale not given: the % may be the effect or the level left
[6] = molecular target: CDK9/cyclin T1 (Homo sapiens) (UniProt O60563+P50750); experiment: Inhibition of human CDK9/cyclinT1 assessed as enzyme activity at 1 uM relative to control; format: protein-complex assay; set-up: scale not given: the % may be the effect or the level left
[7] = molecular target: Tyrosine-protein kinase CSK (Homo sapiens) (UniProt P41240); experiment: Inhibition of human CSK assessed as enzyme activity at 1 uM relative to control; set-up: scale not given: the % may be the effect or the level left
[8] = molecular target: Death-associated protein kinase 2 (Homo sapiens) (UniProt Q9UIK4); experiment: Inhibition of human DAPK2 assessed as enzyme activity at 1 uM relative to control; set-up: scale not given: the % may be the effect or the level left
[9] = molecular target: Death-associated protein kinase 3 (Homo sapiens) (UniProt O43293); experiment: Inhibition of human DAPK3 assessed as enzyme activity at 1 uM relative to control; set-up: scale not given: the % may be the effect or the level left
Sequence of Death-associated protein kinase 3 (Homo sapiens) (O43293 whole entry, looked up): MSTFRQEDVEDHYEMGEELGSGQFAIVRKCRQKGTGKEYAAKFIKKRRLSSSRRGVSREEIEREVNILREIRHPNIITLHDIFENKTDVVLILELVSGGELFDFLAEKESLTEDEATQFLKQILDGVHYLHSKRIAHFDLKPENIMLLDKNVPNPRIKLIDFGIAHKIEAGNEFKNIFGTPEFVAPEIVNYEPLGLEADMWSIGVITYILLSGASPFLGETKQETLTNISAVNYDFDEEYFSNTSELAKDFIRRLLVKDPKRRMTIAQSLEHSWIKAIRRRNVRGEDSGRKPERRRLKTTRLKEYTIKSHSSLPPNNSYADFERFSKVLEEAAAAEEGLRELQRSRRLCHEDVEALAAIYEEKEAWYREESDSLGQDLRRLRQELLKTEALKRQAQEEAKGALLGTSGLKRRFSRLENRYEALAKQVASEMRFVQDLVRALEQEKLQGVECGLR

[10] = molecular target: Serine/threonine-protein kinase tousled-like 2 (Homo sapiens) (UniProt Q86UE8); experiment: Inhibition of human TLK2 assessed as enzyme activity at 1 uM relative to control; set-up: scale not given: the % may be the effect or the level left
Sequence of Serine/threonine-protein kinase tousled-like 2 (Homo sapiens) (Q86UE8 whole entry, looked up): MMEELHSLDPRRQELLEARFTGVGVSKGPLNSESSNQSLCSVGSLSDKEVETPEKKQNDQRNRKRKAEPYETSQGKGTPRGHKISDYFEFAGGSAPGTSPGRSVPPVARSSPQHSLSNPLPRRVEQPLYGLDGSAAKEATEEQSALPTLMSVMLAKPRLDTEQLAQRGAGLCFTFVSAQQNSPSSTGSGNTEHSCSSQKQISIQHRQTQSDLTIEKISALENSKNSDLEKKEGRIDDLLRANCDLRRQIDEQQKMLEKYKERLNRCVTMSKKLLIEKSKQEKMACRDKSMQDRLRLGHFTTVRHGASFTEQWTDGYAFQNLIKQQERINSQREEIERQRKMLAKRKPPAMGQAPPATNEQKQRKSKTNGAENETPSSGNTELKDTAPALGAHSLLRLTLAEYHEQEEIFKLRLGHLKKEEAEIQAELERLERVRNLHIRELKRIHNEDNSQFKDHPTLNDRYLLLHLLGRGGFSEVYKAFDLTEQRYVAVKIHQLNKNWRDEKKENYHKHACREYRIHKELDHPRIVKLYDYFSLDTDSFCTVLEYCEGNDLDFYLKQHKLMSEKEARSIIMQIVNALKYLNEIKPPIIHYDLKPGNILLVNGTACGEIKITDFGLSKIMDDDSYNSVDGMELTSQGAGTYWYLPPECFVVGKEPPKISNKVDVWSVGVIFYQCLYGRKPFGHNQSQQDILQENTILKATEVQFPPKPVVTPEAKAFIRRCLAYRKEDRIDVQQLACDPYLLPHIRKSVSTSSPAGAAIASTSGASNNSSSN

[11] = molecular target: Tyrosine-protein kinase TXK (Homo sapiens) (UniProt P42681); experiment: Inhibition of human Txk assessed as enzyme activity at 1 uM relative to control; set-up: scale not given: the % may be the effect or the level left
Sequence of Tyrosine-protein kinase TXK (Homo sapiens) (P42681 whole entry): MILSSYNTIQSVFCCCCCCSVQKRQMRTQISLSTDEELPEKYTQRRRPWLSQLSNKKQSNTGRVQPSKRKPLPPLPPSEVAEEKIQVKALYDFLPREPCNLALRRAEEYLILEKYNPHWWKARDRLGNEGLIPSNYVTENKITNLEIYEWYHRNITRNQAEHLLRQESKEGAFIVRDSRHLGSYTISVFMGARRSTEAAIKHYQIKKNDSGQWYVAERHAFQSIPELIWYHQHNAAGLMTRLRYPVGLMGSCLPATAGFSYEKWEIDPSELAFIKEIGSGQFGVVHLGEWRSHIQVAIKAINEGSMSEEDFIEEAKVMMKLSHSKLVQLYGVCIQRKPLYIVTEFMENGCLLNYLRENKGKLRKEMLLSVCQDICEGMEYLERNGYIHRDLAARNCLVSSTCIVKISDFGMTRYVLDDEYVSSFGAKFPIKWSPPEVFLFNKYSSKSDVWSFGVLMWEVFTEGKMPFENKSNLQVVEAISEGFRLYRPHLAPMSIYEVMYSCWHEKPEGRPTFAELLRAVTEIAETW

[12] = molecular target: Serine/threonine-protein kinase ULK2 (Homo sapiens) (UniProt Q8IYT8); experiment: Inhibition of human ULK2 assessed as enzyme activity at 1 uM relative to control; set-up: scale not given: the % may be the effect or the level left
[13] = molecular target: Serine/threonine-protein kinase mTOR (Homo sapiens) (UniProt P42345); experiment: Inhibition of human mTOR assessed as enzyme activity at 1 uM relative to control; set-up: scale not given: the % may be the effect or the level left
[14] = molecular target: Serine/threonine-protein kinase MRCK beta (Homo sapiens) (UniProt Q9Y5S2); experiment: Inhibition of human MRCKbeta assessed as enzyme activity at 1 uM relative to control; set-up: scale not given: the % may be the effect or the level left
[15] = molecular target: Serine/threonine-protein kinase 4 (Homo sapiens) (UniProt Q13043); experiment: Inhibition of human MST1 assessed as enzyme activity at 1 uM relative to control; set-up: scale not given: the % may be the effect or the level left
[16] = molecular target: Serine/threonine-protein kinase 3 (Homo sapiens) (UniProt Q13188); experiment: Inhibition of human MST2 assessed as enzyme activity at 1 uM relative to control; set-up: scale not given: the % may be the effect or the level left
[17] = molecular target: Serine/threonine-protein kinase 24 (Homo sapiens) (UniProt Q9Y6E0); experiment: Inhibition of human MST3 assessed as enzyme activity at 1 uM relative to control; set-up: scale not given: the % may be the effect or the level left
Sequence of Serine/threonine-protein kinase 24 (Homo sapiens) (Q9Y6E0 whole entry, looked up): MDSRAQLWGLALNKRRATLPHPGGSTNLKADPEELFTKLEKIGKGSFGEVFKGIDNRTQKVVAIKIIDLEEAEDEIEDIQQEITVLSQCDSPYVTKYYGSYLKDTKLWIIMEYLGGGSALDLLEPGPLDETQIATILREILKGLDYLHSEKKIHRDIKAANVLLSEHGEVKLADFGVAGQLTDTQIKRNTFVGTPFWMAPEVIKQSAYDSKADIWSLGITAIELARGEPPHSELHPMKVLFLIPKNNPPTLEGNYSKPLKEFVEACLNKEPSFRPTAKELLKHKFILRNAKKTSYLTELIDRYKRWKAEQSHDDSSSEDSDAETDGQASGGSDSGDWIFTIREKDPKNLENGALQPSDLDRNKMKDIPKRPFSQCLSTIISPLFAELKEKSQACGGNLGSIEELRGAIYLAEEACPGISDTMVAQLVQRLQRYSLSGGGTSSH

[18] = molecular target: Myosin light chain kinase, smooth muscle (Homo sapiens) (UniProt Q15746); experiment: Inhibition of human MYLK assessed as enzyme activity at 1 uM relative to control; set-up: scale not given: the % may be the effect or the level left
[19] = molecular target: Serine/threonine-protein kinase PAK 2 (Homo sapiens) (UniProt Q13177); experiment: Inhibition of human PAK2 assessed as enzyme activity at 1 uM relative to control; set-up: scale not given: the % may be the effect or the level left
[20] = molecular target: Protein kinase C epsilon type (Homo sapiens) (UniProt Q02156); experiment: Inhibition of human PKCepsilon assessed as enzyme activity at 1 uM relative to control; set-up: scale not given: the % may be the effect or the level left
[21] = molecular target: cGMP-dependent protein kinase 1 (Homo sapiens) (UniProt Q13976); experiment: Inhibition of human PRKG1alpha assessed as enzyme activity at 1 uM relative to control; set-up: scale not given: the % may be the effect or the level left
[22] = molecular target: Tyrosine-protein kinase FRK (Homo sapiens) (UniProt P42685); experiment: Inhibition of human PTK5 assessed as enzyme activity at 1 uM relative to control; set-up: scale not given: the % may be the effect or the level left
[23] = molecular target: Phosphorylase b kinase gamma catalytic chain, liver/testis isoform (Homo sapiens) (UniProt P15735); experiment: Inhibition of human PhKgamma2 assessed as enzyme activity at 1 uM relative to control; set-up: scale not given: the % may be the effect or the level left
[24] = molecular target: Serine/threonine-protein kinase pim-1 (Homo sapiens) (UniProt P11309); experiment: Inhibition of human Pim-1 assessed as enzyme activity at 1 uM relative to control; set-up: scale not given: the % may be the effect or the level left
[25] = molecular target: Rho-associated protein kinase 2 (Homo sapiens) (UniProt O75116); experiment: Inhibition of human ROCK-2 assessed as enzyme activity at 1 uM relative to control; set-up: scale not given: the % may be the effect or the level left
[26] = molecular target: Ribosomal protein S6 kinase alpha-1 (Homo sapiens) (UniProt Q15418); experiment: Inhibition of human Rsk1 assessed as enzyme activity at 1 uM relative to control; set-up: scale not given: the % may be the effect or the level left
[27] = molecular target: SRSF protein kinase 1 (Homo sapiens) (UniProt Q96SB4); experiment: Inhibition of human SRPK1 assessed as enzyme activity at 1 uM relative to control; set-up: scale not given: the % may be the effect or the level left
[28] = molecular target: Ephrin type-A receptor 5 (Homo sapiens) (UniProt P54756); experiment: Inhibition of human EphA5 assessed as enzyme activity at 1 uM relative to control; set-up: scale not given: the % may be the effect or the level left
[29] = molecular target: Ephrin type-A receptor 7 (Homo sapiens) (UniProt Q15375); experiment: Inhibition of human EphA7 assessed as enzyme activity at 1 uM relative to control; set-up: scale not given: the % may be the effect or the level left
[30] = molecular target: Ephrin type-B receptor 4 (Homo sapiens) (UniProt P54760); experiment: Inhibition of human EphB4 assessed as enzyme activity at 1 uM relative to control; set-up: scale not given: the % may be the effect or the level left
[31] = molecular target: Fibroblast growth factor receptor 1 (Homo sapiens) (UniProt P11362); experiment: Inhibition of human FGFR1 assessed as enzyme activity at 1 uM relative to control; set-up: scale not given: the % may be the effect or the level left
Sequence of Fibroblast growth factor receptor 1 (Homo sapiens) (P11362 22-822 limits assumed): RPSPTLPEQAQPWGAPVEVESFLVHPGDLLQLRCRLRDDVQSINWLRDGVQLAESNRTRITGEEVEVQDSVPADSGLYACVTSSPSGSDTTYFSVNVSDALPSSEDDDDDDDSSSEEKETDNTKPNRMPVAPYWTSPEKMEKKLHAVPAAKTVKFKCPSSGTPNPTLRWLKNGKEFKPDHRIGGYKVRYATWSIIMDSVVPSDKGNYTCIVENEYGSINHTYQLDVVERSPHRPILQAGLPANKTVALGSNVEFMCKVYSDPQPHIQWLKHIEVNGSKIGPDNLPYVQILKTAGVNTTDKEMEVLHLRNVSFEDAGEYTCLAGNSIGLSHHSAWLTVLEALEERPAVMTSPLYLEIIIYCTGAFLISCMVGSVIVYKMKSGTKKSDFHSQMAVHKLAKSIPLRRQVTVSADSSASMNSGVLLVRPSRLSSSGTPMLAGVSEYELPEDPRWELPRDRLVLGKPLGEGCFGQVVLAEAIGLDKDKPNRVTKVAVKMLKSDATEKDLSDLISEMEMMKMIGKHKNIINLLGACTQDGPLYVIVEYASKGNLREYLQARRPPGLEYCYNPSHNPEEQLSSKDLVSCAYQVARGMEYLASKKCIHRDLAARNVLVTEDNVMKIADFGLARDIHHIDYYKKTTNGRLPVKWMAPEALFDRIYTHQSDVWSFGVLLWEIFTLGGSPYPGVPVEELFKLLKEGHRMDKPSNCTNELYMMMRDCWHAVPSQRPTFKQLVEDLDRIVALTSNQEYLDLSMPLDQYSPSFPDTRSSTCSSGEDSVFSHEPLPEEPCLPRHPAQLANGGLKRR

[32] = molecular target: Fibroblast growth factor receptor 3 (Homo sapiens) (UniProt P22607); experiment: Inhibition of human FGFR3 assessed as enzyme activity at 1 uM relative to control; set-up: scale not given: the % may be the effect or the level left
[33] = molecular target: Vascular endothelial growth factor receptor 1 (Homo sapiens) (UniProt P17948); experiment: Inhibition of human Flt1 assessed as enzyme activity at 1 uM relative to control; set-up: scale not given: the % may be the effect or the level left
[34] = molecular target: Homeodomain-interacting protein kinase 1 (Homo sapiens) (UniProt Q86Z02); experiment: Inhibition of human HIPK1 assessed as enzyme activity at 1 uM relative to control; set-up: scale not given: the % may be the effect or the level left
[35] = molecular target: Interleukin-1 receptor-associated kinase 1 (Homo sapiens) (UniProt P51617); experiment: Inhibition of human IRAK1 assessed as enzyme activity at 1 uM relative to control; set-up: scale not given: the % may be the effect or the level left
[36] = molecular target: Serine/threonine-protein kinase STK11 (Homo sapiens) (UniProt Q15831); experiment: Inhibition of human LKB1 assessed as enzyme activity at 1 uM relative to control; set-up: scale not given: the % may be the effect or the level left
Sequence of Serine/threonine-protein kinase STK11 (Homo sapiens) (Q15831 whole entry): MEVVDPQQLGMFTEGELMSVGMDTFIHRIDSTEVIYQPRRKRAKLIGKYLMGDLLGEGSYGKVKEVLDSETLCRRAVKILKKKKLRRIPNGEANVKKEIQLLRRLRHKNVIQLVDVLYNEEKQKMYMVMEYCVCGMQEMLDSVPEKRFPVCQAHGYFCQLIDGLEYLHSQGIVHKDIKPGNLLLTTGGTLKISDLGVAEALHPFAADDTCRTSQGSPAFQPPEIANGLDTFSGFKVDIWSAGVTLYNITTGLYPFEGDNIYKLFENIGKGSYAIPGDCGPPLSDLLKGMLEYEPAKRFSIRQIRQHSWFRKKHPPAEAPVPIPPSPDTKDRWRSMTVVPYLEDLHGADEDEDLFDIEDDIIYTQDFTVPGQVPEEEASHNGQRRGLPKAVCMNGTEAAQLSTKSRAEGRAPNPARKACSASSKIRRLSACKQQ

[37] = molecular target: Maternal embryonic leucine zipper kinase (Homo sapiens) (UniProt Q14680); experiment: Inhibition of human MELK assessed as enzyme activity at 1 uM relative to control; set-up: scale not given: the % may be the effect or the level left
Sequence of Maternal embryonic leucine zipper kinase (Homo sapiens) (Q14680 whole entry, looked up): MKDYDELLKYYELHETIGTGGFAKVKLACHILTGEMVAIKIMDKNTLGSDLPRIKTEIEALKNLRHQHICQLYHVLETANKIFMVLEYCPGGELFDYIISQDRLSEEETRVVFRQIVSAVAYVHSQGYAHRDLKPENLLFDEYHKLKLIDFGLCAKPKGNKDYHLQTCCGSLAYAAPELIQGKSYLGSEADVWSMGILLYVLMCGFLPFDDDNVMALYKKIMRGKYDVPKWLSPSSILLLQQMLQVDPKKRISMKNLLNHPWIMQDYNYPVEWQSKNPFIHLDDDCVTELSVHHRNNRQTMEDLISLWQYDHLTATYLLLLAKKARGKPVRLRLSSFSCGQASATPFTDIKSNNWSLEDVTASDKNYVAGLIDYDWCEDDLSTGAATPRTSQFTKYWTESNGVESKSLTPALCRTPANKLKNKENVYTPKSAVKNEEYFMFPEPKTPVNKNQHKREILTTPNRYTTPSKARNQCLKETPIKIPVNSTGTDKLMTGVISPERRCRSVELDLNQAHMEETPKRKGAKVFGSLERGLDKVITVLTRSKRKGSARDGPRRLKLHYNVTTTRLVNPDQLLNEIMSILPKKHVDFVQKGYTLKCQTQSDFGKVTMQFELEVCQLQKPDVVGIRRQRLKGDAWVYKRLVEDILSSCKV

[38] = molecular target: MAP kinase-interacting serine/threonine-protein kinase 2 (Homo sapiens) (UniProt Q9HBH9); experiment: Inhibition of human MKNK2 assessed as enzyme activity at 1 uM relative to control; set-up: scale not given: the % may be the effect or the level left

Sequence of Serine/threonine-protein kinase B-raf (Homo sapiens) (P15056 whole entry): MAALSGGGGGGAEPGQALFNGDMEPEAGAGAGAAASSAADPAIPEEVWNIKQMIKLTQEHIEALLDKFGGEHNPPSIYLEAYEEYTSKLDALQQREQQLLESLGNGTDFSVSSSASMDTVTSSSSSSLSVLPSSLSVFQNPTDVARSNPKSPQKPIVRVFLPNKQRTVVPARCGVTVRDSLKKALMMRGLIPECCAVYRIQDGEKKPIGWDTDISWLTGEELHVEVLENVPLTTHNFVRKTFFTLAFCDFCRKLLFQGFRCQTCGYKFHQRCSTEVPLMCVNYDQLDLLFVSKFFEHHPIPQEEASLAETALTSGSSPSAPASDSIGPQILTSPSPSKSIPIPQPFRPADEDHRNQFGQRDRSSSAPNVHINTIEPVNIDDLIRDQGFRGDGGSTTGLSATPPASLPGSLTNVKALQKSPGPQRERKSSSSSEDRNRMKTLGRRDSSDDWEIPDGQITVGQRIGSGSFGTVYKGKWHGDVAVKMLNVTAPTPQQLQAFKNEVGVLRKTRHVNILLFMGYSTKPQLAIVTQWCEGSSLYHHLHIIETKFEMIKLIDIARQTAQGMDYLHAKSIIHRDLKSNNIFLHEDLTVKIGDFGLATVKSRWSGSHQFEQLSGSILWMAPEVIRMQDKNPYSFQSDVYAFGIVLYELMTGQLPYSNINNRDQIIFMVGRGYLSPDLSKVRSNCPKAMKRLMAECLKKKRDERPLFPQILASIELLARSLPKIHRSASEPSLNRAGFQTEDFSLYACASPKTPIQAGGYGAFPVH

Compound: CCCS(=O)(=O)Nc1cccc(Nc2ccc3ncn(C)c(=O)c3c2)c1C#N
- inhibition [1]: < 60%
- clearance [2]: 1.6 mL/min/kg
- inhibition in vivo at 30 mg/kg [3]: 65%
- Activity [4]: 109%
- Activity [5]: 104%
- Activity [6]: 104%
- Activity [7]: 111%
- Activity [8]: 108%
- Activity [9]: 110%
- Activity [10]: 104%
- Activity [11]: 104%
- Activity [12]: 99.5%
- Activity [13]: 101%
- Activity [14]: 104%
- Activity [15]: 108%
- Activity [16]: 99.5%
- Activity [17]: 100%
- Activity [18]: 106%
- Activity [19]: 114%
- Activity [20]: 99.5%
- Activity [21]: 112%
- Activity [22]: 83.5%
- Activity [23]: 112%
- Activity [24]: 147%
- Activity [25]: 114%
- Activity [26]: 145%
- Activity [27]: 109%
- Activity [28]: 103%
- Activity [29]: 99%
- Activity [30]: 104%
- Activity [31]: 110%
- Activity [32]: 112%
- Activity [33]: 93.5%
- Activity [34]: 114%
- Activity [35]: 108%
- Activity [36]: 90.5%
- Activity [37]: 109%
- Activity [38]: 106%
